# Measurements from patent publication US20240174652A1, “NOVEL DIOXANE DERIVATIVES” (Boehringer Ingelheim International GmbH, priority 2022, published 2024).
# Biological target: human metabotropic Glutamate 4 receptor (Homo sapiens (Human), UniProt Q14833)
# Test: Assay A: in vitro testing of mGluR4 potency (cAMP HTRF, glutamate/forskolin stimulated)
# Format: cell-based
# Details: HEK293 cells overexpressing human mGluR4; 10 uM L-glutamic acid, 1 uM forskolin; compounds of the present invention
# Procedure: A. In Vitro Testing of mGluR4 Potency The in vitro activity of the compounds according to the invention may be investigated as follows:
# The HEK293 cell overexpressing the human metabotropic Glutamate 4 receptor are thawed at 37° C. and immediately diluted with cell culture medium. After centrifugation, the cell pellet is re-suspended in medium and then distributed from a stirred spinner flask into the wells of the assay plate. The plates are incubated for one hour at room temperature before they are incubated for 24 hours at 37° C./5% CO2. After washing the cells in the plate three times with 80 uL HBSS/HEPES buffer (10 uL buffer remained in the wells after washing), 5 uL per well of compounds diluted in HBSS/HEPES buffer containing 0.2% BSA (final concentration: 0.1%) and 1 mM IBMX (final concentration: 0.5 mM) are added to the wells of the assay plate. Thereafter 5 uL per well of L-Glutamic acid (final concentration: 10 uM), forskolin (final concentration: 1 uM) and 1 mM IBMX (final concentration: 0.5 mM) dissolved in HBSS/HEPES buffer containing 0.2% BSA (final concentration: 0.1%) are added to the assay plate (final DMSO concentration: 1%). Several wells of the assay plate are used either for the positive and the negative controls or for the cAMP standard curve. The assay plate is incubated for 30 minutes at room temperature. Then 5 ul per well of Anti-cAMP-Antibody-d2 solution and 5 ul per well of cAMP-Europium Cryptate dilution are added to all wells of the plate and the plate is incubated another 60 minutes light protected at room temperature. The emission at 615 nm and 665 nm (Excitation wavelength: 320 nm) are measured on the EnVision™ reader (Perkin Elmer). The ratio between the emission at 665 nm and 615 is calculated by the reader. The whole assay is performed in the dark or under green light.
# The cAMP standard is prepared by diluting the cAMP stock solution with HBSS/Hepes buffer: 5 μl/well of the cAMP dilutions (in HBSS/Hepes buffer containing 1 mM IBMX and 0.2% BSA—final concentration: 0.5 mM IBMX and 0.1% BSA) are added to 10 ul/well HBSS/Hepes buffer plus 5 ul/well 4% DMSO in HBSS/Hepes containing 0.2% BSA (final DMSO concentration: 1% —like in the wells containing compounds) in the wells of the assay plate. The final cAMP concentrations in the assay plate are: 0, 0.17, 0.69, 2.78, 11.1, 44.5, 178, and 712 nM (two wells/cAMP concentration).
# Each assay microtiter plate contained also wells with vehicle controls instead of compound as controls for L-Glutamic acid induced signal (negative control; 100% CTL; 10 uM L-Glutamic acid+1 uM forskolin+0.5 mM IBMX+1% DMSO) and wells with vehicle controls without L-Glutamic acid as controls for non-specific changes in signal (positive control; 0% CTL; 0 uM L-Glutamic acid+1 uM forskolin+0.5 mM IBMX+1% DMSO).
# The analysis of the data is performed by the calculation the ratio between the emission at 665 nm and the emission at 615 nm (Em665/Em615 ratio). Thereafter the signals of the compounds are normalized using the positive and negative controls by the following formula:
# PoC=100×((Signal Sample−Positive Control)/(Negative Control−Positive Control))
# Sequence of human metabotropic Glutamate 4 receptor (Q14833 33-912): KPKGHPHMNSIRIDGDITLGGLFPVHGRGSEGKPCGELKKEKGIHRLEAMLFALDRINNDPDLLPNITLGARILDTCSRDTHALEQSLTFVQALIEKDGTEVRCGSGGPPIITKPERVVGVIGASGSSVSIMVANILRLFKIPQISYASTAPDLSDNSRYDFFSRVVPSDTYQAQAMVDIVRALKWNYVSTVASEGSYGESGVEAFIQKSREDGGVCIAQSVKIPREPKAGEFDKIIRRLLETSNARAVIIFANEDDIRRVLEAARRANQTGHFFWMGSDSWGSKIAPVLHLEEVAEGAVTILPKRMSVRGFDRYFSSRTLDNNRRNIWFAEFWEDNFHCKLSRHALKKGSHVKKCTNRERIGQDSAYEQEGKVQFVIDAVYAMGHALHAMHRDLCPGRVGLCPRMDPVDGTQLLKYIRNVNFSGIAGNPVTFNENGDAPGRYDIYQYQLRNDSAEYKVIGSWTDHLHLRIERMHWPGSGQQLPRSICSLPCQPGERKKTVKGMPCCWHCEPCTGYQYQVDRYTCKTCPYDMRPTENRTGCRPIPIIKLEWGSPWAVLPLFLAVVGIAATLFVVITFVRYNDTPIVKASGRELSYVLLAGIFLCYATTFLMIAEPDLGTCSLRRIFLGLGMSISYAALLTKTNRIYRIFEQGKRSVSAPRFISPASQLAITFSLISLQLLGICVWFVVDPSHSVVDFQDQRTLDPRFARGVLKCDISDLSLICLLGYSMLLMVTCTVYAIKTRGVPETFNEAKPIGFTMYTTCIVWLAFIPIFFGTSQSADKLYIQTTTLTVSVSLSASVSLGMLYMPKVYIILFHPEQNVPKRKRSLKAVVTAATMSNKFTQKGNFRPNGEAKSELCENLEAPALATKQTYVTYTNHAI
row,SMILES,IC50
1,"Cc1cnc(C(=O)NC(c2nc3cc(C(F)(F)F)ccc3n2C)C2COCCO2)cn1 (single isomer, unassigned) [Example 1-1, N-[(1,4-dioxan-2-yl)[1-methyl-5-(trifluoromethyl)-1H-1,3-benzodiazol-2-yl]methyl]-5-methylpyrazine-2-carboxamide]",0.067 µM
2,"Cc1cnc(C(=O)NC(c2nc3cc(Cl)ccc3n2CC(F)F)C2COCCO2)cn1 (single isomer, unassigned) [Example 5]",0.062 µM
3,"Cc1cnc(C(=O)NC(c2nc3ccc(C(F)(F)F)cc3n2C)C2COCCO2)cn1 (single isomer, unassigned) [Example 7, N-[(1,4-dioxan-2-yl)[1-methyl-6-(trifluoromethyl)-1H-1,3-benzodiazol-2-yl]methyl]-5-methylpyrazine-2-carboxamide]",0.07 µM
4,"CCn1c(C(NC(=O)c2cnc(C)cn2)C2COCCO2)nc2cc(F)ccc21 (single isomer, unassigned) [Example 10, N-[(1,4-dioxan-2-yl)(1-ethyl-5-fluoro-1H-1,3-benzodiazol-2-yl)methyl]-5-methylpyrazine-2-carboxamide]",0.02 µM
5,"CCn1c(C(NC(=O)c2cnc(C)cn2)C2COCCO2)nc2cc(F)c(F)cc21 (single isomer, unassigned) [Example 11]",0.015 µM
6,"Cc1cnc(C(=O)N[C@H](c2nc3cc(C(F)(F)F)ccc3n2C)[C@H]2COCCO2)cn1 [Example 1, N-[(R)-[(2S)-1,4-dioxan-2-yl][1-methyl-5-(trifluoromethyl)-1H-1,3-benzodiazol-2-yl]methyl]-5-methylpyrazine-2-carboxamide]",0.02 µM
7,"Cc1cnc(C(=O)N[C@H](c2nc3ccc(F)cc3n2CC(F)F)[C@H]2COCCO2)cn1 [Example 8, N-[(R)-[1-(2,2-difluoroethyl)-6-fluoro-1H-1,3-benzodiazol-2-yl][(2S)-1,4-dioxan-2-yl]methyl]-5-methylpyrazine-2-carboxamide]",0.031 µM

# More lines, now with the values ahead:
row,IC50,SMILES
1,0.014 µM,"Cc1cnc(C(=O)N[C@H](c2nc3cc(F)ccc3n2CC(F)F)[C@H]2COCCO2)cn1 [Example 2, N-[(R)-[1-(2,2-difluoroethyl)-5-fluoro-1H-1,3-benzodiazol-2-yl][(2S)-1,4-dioxan-2-yl]methyl]-5-methylpyrazine-2-carboxamide]"
2,0.011 µM,"Cc1cnc(C(=O)NC(c2nc3cc(F)c(F)cc3n2CC(F)F)C2COCCO2)cn1 (single isomer, unassigned) [Example 9, N-{[1-(2,2-difluoroethyl)-5,6-difluoro-1H-1,3-benzodiazol-2-yl](1,4-dioxan-2-yl)methyl}-5-methylpyrazine-2-carboxamide]"
3,0.007 µM,"Cc1cnc(C(=O)NC(c2nc3cc(Cl)ccc3n2CC(F)F)C2COCCO2)cn1 (single isomer, unassigned) [Example 4, N-{[5-chloro-1-(2,2-difluoroethyl)-1H-1,3-benzodiazol-2-yl](1,4-dioxan-2-yl)methyl}-5-methylpyrazine-2-carboxamide]"
4,0.006 µM,"Cc1cnc(C(=O)NC(c2nc3ccc(C(F)(F)F)cc3n2CC(F)F)C2COCCO2)cn1 (single isomer, unassigned) [Example 6]"
5,0.005 µM,"CCn1c([C@@H](NC(=O)c2cnc(C)cn2)[C@H]2COCCO2)nc2cc(C(F)(F)F)ccc21 [Example 3, N-[(R)-[(2S)-1,4-dioxan-2-yl][1-ethyl-5-(trifluoromethyl)-1H-1,3-benzodiazol-2-yl]methyl]-5-methylpyrazine-2-carboxamide]"

# Same assay, conditions: HEK293 cells overexpressing human mGluR4; 10 uM L-glutamic acid, 1 uM forskolin; prior-art compounds of WO2019/138017
row,IC50,SMILES
1,9.85 µM,"Cc1nocc1C(=O)N[C@H](c1nc2cccc(F)c2[nH]1)[C@H]1CC[C@H](C)CC1 [Example 8 in WO2019/ 138017, reference compound]"
2,> 10 µM,"COc1ccc2[nH]c(C(NC(=O)c3conc3C)C3CCCCCCC3)nc2c1F (centres unmarked) [Example 12 in WO2019/ 138017, reference compound]"
3,5.6 µM,"CCn1nccc1C(=O)N[C@H](c1nc2ccc(C#N)c(F)c2[nH]1)[C@H]1CC[C@H](C)CC1 [Example 125 in WO2019/ 138017, reference compound]"
4,6.3 µM,"Cn1nccc1C(=O)N[C@H](c1nc2c(F)c(Br)ccc2n1C)[C@H]1CC[C@@H](C)CC1 [Intermediate 250 in WO2019/ 138017 (regioisomere 1), reference compound]"
5,4 µM,"Cn1nccc1C(=O)N[C@H](c1nc2c(F)c(Br)ccc2n1C)[C@H]1CC[C@H](C)CC1 [Intermediate 250 in WO2019/ 138017 (regioisomere 2), reference compound]"
